# Data: patent US11679107B2 (Eisai R&D Management Co., Ltd., priority 2018, dated 2023)
# Read-outs that look alike come from different tables or passages of the source.
# Assays:
# [1] = test system: NCI-H1568 cells (high MCL1); test: Cell proliferation and viability, CellTiter-Glo, 72 hours; type: cell-based; settings: for GI50: geometric mean
# Experimental: Cell lines were maintained in RPMI-1640 (ATCC 30-2001) supplemented with 10% fetal bovine serum (FBS). The Panc lines were supplemented in addition with insulin and FBS up to 15% total.
# Compounds for assay were prepared as stocks in 90% dimethyl sulfoxide (DMSO), assessed for purity by LC/MS, and serially diluted in DMSO using a low-volume liquid handler (VIAFLO ASSIST and VIAFLO II electronic 16-channel pipette, 0.5-12.5 μL) in an 11-point half-log serial dilution to create a master dose response (MDR) source used for all tests.
# Transfer of compounds from the MDR source plate to cell assay-ready plates were accomplished directly by low-energy acoustic transfer (ATS100, EDC Biosystems). After transfer of compounds to the assay plate, the dose-response range experienced by cells was typically 10 μM-100 pM (5 logs), and final DMSO concentration in the assay was 0.1%, uniformly. Each assay plate was self-anchored containing vehicle/DMSO negative controls, medium-only/positive controls, and cidal control dose-responses of bortezomib and staurosporine. Assay-ready plates were heat-sealed and stored at −20° C. until used, no longer than one month.
# A DMSO-matched time zero (T0) plate was read and then all other plates were incubated at 37° C. with 5% CO2 and 95% relative humidity until the end of assay. Cell proliferation and viability assays were performed 72 hours post-treatment depending on cell growth where at least one doubling would have occurred.
# Assessment of viability and proliferation was by measurement of cell ATP content using CellTiter-Glo® Luminescent Cell Viability Assay reagent (Promega) according to the manufacturer's instructions (CellTiter-Glo® Luminescent Cell Viability Assay Technical Bulletin Instructions for Use of Product(s) G7570, G7571, G7572, G7573 Literature #TB288, Revised March 2015), using a microtiter plate reader (Envision, PE).
# Cell proliferation was evaluated using the time zero (T0) signal as the positive control and the within-plate vehicle wells (DMSO) as the negative control. Data was converted to percent inhibition and falls into the range from −100% to 100% of growth where −100% equals a cidal response and 100% equals uninhibited or maximal growth. Cell growth at or near 0% is considered a static response.
# SF3b complexes = target: T1, SF3b complexes (Homo sapiens, UniProt O75533+Q7RTV0); test: Scintillation proximity assay (SPA) with [3H]-labelled pladienolide probe; type: binding; settings: SF3B1 (WT); geometric mean; read-out: SPA-ATS GMean IC50 (nM) SF3B1 (WT)
# T1 construct: endogenous in cells; host or cells: Nuclear extracts; A HeLa S3 extract preparation is described for the in vitro splicing assay
# Experimental: Scintillation Proximity Assay (SPA) with [^3-H]-Labelled Pladienolide Probe
# (§1) Batch immobilization of anti-SF3B1 antibody (MBL) to anti-mouse PVT SPA scintillation beads (PerkinElmer) was prepared as follows: for every 2.5 mg of nuclear extracts, 5 μg anti-SF3B1 antibody and 1.5 mg of beads were mixed in 150 μl PBS. The antibody-bead mixture was incubated for 30 min at RT and centrifuged at 18,000 g for 5 min. 150 μl PBS was used to resuspend every 1.5 mg antibody-bead mixture. The beads were suspended and added to the prepared nuclear extracts. The slurry was incubated for 2 h at 4° C. with gentle mixing. The beads were then collected by centrifuging at 18,000 g for 5 min, and washed twice with PBS+0.1% Triton X-100. After a final centrifugation step, every 1.5 mg of beads was suspended with 150 μl of PBS. The SF3b complexes were tested for [^3H]-labelled pladienolide probe binding ([^3H]—PB), synthesized as previously described (Kotake et al., 2007). 100 μl binding reactions were prepared with 50 μl bead slurry and by adding varying concentrations of PB or PB—OH, and after 30 min pre-incubation, 2.5 nM [^3H]—PB was added. The mixture was incubated for 30 min, and luminescence signals were read using a MicroBeta2 Plate Counter (PerkinElmer). Prism 6 (Graphpad) was used for non-linear regression curve fitting of the data. • a. • b. HeLa nuclear extract preparation (for in vitro splicing modulation assay below) • c. HeLa S3 cell pellets were resuspended in hypotonic buffer (10 mM HEPES pH 7.9, 1.5 mM MgCl2, 10 mM KCl, 0.2 mM PMSF, and 0.5 mM DTT) and the suspension was brought up to a total of 5 packed cell volume (PCV). After centrifugation, the supernatant was discarded, and the cells were brought up to 3 PCV with hypotonic buffer and incubated on ice for 10 minutes. Cells were lysed using a dounce homogenizer and then centrifuged. The supernatant was discarded, and the pellet was resuspended with ½ packed nuclear volume (PNV) of low salt buffer (20 mM HEPES pH 7.9, 1.5 mM MgCl2, 20 mM KCl, 0.2 mM EDTA, 25% glycerol, 0.2 mM PMSF, 0.5 mM DTT), followed by ½ PNV of high salt buffer (same as low salt buffer except 1.4 M KCl was used). The nuclei were gently mixed for 30 minutes before centrifuging. The supernatant (nuclear extract) was then dialyzed into storage buffer (20 mM HEPES pH 7.9, 100 mM KCl, 0.2 mM EDTA, 20% glycerol, 0.2 mM PMSF, 0.5 mM DTT). Protein concentration was determined using NanoDrop 8000 UV-Vis spectrophotometer (ThermoFisher Scientific). • d. In vitro splicing assay (IVS)
# [2] = test system: Ad2 variant pre-mRNAs spliced in HeLa S3 nuclear extracts; test: In vitro splicing assay (IVS), RT-qPCR of spliced product; type: biochemical; settings: for IC50: geometric mean
# Experimental: as §1
# All Ad2-derived (Pellizzoni et al., 1998) sequences were cloned into pcDNA3.1(+) vector (Promega) using 5′ EcoRI and 3′ XbaI restriction sites. The plasmids were linearized using XbaI and used as DNA templates in the in vitro transcription reactions. The FtzΔi intron-less plasmid (Luo and Reed, 1999) was linearized using EcoRI. All RNAs were in vitro transcribed and then purified using MEGAScript T7 (Invitrogen) and MegaClear (Invitrogen) kits, respectively. For splicing reactions using Ad2 variant pre-mRNAs, […] reactions were prepared using 8 μg nuclear extracts prepared from HeLa S3, 2 ng pre-mRNA, 0.2 ng FTZΔi, and varying concentrations of exemplary payloads or DMSO. After a 15 minute pre-incubation at 30° C., 1 μL splicing activation buffer (0.5 mM ATP, 20 mM creatine phosphate, 1.6 mM MgCl2) was added, and the reactions were incubated for 90 minutes at 30° C. The reactions were then quenched with 13 μL it DMSO, and 25 nL was used for RT-qPCR. RT-qPCR reactions were prepared using TaqMan RNA-to-CT 1-step kit (Life Technologies), RNA from splicing reactions, Ad2 (forward: […]; reverse: […]; probe: […]) and Ftz (forward: […]; reverse: […]; probe: […]) mRNA primer-probe sets. Prism 6 (Graphpad) was used for non-linear regression curve fitting of the formed spliced product and normalized to the control (DMSO) sample.
# [3] = NCI-H1568, 72 h, read-out: CTGlo-ATS GMean GI50 (nM) 72 h NCIH1568.1, NCIH1568.1 cells, 72 h
# [4] = NCIH1568.1 cells, 72 h, −100% cidal, 0% static, 100% maximal growth
# [5] = Ad2.1 pre-mRNA substrate, read-out: qPCR-IVS-ATS GMean IC50 (nM) Ad2.1
# [6] = Ad2.2 pre-mRNA substrate, read-out: qPCR-IVS-ATS GMean IC50 (nM) Ad2.2
# [7] = NCI-H1568, read-out: CTGlo-ATS GMean GI50 (nM) 72 h NCIH1568.1, NCIH1568.1 cells, 72 h
# [8] = 72 h, NCIH1568.1, -100% = cidal, 0% = static, 100% = uninhibited growth
# [9] = NCI-H1568, 72 h, read-out: CTGlo-ATS GMean GI50 (nM) 72 h NCIH1568.1, 72 h, NCIH1568.1
Structure (SMILES),"GI50 [1, 3] [nM]","CTGlo-ATS Mean MinResponse % 72 h NCIH1568.1 [1, 4] [%]",IC50 (SF3b complexes) [nM],"IC50 [2, 5] [nM]","IC50 [2, 6] [nM]","GI50 [1, 7] [nM]","CTGlo-ATS Mean MinResponse % 72 h NCIH1568.1 [1, 8] [%]","GI50 [1, 9] [nM]",Ratio Ad2.1/2.2 ([2]; ratio of IVS IC50 Ad2.1 to Ad2.2)
CCCS(=O)(=O)N1CCC(N(C)c2cc(F)cc(/C=C(\C)[C@H]3OC(=O)C[C@H](O)CC[C@H](C)[C@@H](OC(=O)N4CCN(C)CC4)/C=C/[C@@H]3C)c2)CC1 [Compound 182],23.4,−69.521,86.4,208,40.1,,,,
C/C(=C\c1cc(F)cc(N(C)C2CCN(S(=O)(=O)c3ccccc3)CC2)c1)[C@H]1OC(=O)C[C@H](O)CC[C@H](C)[C@@H](OC(=O)N2CCN(C)CC2)/C=C/[C@@H]1C [Compound 185],,−99.538,186,543,46.6,114,,,
C/C(=C\c1cc(F)c2nnn(C3CCCCC3)c2c1)[C@H]1OC(=O)C[C@H](O)CC[C@H](C)[C@@H](OC(=O)N2CCN(C)CC2)/C=C/[C@@H]1C [Compound 164],,−87.159,3.59,20.7,27.9,1.54,,,
C/C(=C\c1cc(F)cc(NC2CCN(S(C)(=O)=O)CC2)c1)[C@H]1OC(=O)C[C@H](O)CC[C@H](C)[C@@H](OC(=O)N2CCN(C)CC2)/C=C/[C@@H]1C [Compound 173],15.2,−79.437,21,88.1,28.4,,,,
C/C(=C\c1cc(F)cc(N2CCN(C(=O)C3(C)COC3)CC2)c1)[C@H]1OC(=O)C[C@H](O)CC[C@H](C)[C@@H](OC(=O)N2CCN(C)CC2)/C=C/[C@@H]1C [Compound 154],,−85.459,3.75,20,8.72,1.85,,,
C/C(=C\c1cc(F)c2nnn([C@@H]3CCCOC3)c2c1)[C@H]1OC(=O)C[C@H](O)CC[C@H](C)[C@@H](OC(=O)N2CCN(C)CC2)/C=C/[C@@H]1C [Compound 161],,−85.783,2.51,8.5,6.31,0.772,,,
C/C(=C\c1cc(F)cc(N(C)CC2CCN(S(C)(=O)=O)CC2)c1)[C@H]1OC(=O)C[C@H](O)CC[C@H](C)[C@@H](OC(=O)N2CCN(C)CC2)/C=C/[C@@H]1C [Compound 187],,−54.197,43.2,157,59.6,65,,,
C/C(=C\c1cc(F)c2nnn([C@@H](C)CO)c2c1)[C@H]1OC(=O)C[C@H](O)CC[C@H](C)[C@@H](OC(=O)N2CCN(C)CC2)/C=C/[C@@H]1C [Compound 149],,−73.106,1.86,9.13,8.71,1.66,,,
C/C(=C\c1cc(F)cc(N2CCN(C(=O)[C@@H]3CCOC3)CC2)c1)[C@H]1OC(=O)C[C@H](O)CC[C@H](C)[C@@H](OC(=O)N2CCN(C)CC2)/C=C/[C@@H]1C [Compound 152],1.51,−80.509,3.83,16.2,8.39,,,,
"C/C(=C\c1cc(F)cc(N2CCN(C(=O)Cn3cccn3)CC2)c1)[C@H]1OC(=O)C[C@H](O)CC[C@H](C)[C@@H](OC(=O)N2CCCN(C)CC2)/C=C/[C@@H]1C [Compound 225, [(2S,3S,4E,6R,7S,10R)-2-[(E)-1-[3-fluoro-5-[4-(2-pyrazol-1-ylacetyl)piperazin-1-yl]phenyl]prop-1-en-2-yl]-10-hydroxy-3,7-dimethyl-12-oxo-1-oxacyclododec-4-en-6-yl] 4-methyl-1,4-diazepane-1-carboxylate]",,,18.2,7.56,22.4,,−73.768,11,0.337
C/C(=C\c1cc(F)c2nnn(C3CCN(S(C)(=O)=O)CC3)c2c1)[C@H]1OC(=O)C[C@H](O)CC[C@H](C)[C@@H](OC(=O)N2CCN(C)CC2)/C=C/[C@@H]1C [Compound 157],,−90.424,2.27,8.47,7.49,1.29,,,
"C/C(=C\c1cc(F)cc(N2CCN(C(=O)Cn3cccn3)CC2)c1)[C@H]1OC(=O)C[C@H](O)CC[C@H](C)[C@@H](OC(=O)N2CC[C@H](N(C)C)C2)/C=C/[C@@H]1C [Compound 228, [(2S,3S,4E,6R,7S,10R)-2-[(E)-1-[3-fluoro-5-[4-(2-pyrazol-1-ylacetyl)piperazin-1-yl]phenyl]prop-1-en-2-yl]-10-hydroxy-3,7-dimethyl-12-oxo-1-oxacyclododec-4-en-6-yl] (3S)-3-(dimethylamino)pyrrolidine-1-carboxylate]",,,3.96,,,,−77.633,3.29,
